“Also recorded” adds a separate entry of the source.
Assays:
[1] = test system: human pluripotent stem cell-derived retinal ganglion cell line; test: Live cell Ca2+ imaging of retinal ganglion cell line; format: cell-based; settings: 1 mM glutamate stimulation; Fluo-4; passaged cell line
Procedure: For calcium imaging, cells cultured on 18 mm coverslip were washed with Tyrode's solution (119 mM NaCl, 2.5 mM KCl, 2 mM CaCl2), 2 mM MgCl2, 25 mM HEPES, 30 mM glucose, pH 7.4) twice or three times, and then cultured at 37° C. with addition of 1 μM Fluo-4-AM (Life technologies, Carlsbad, Calif., USA). After culturing for 15 min, cells were washed with Tyrode's solution for 10 min. Time differential images were obtained by using an Olympus IX-71 inverted microscope (Olympus, Tokyo, Japan) equipped with 40×(1.0 NA) oil lens and EMCCD (iXon887, Andor Technologies, Belfast, Northern Ireland) every 0.5 sec for 30 min. From the 10th image frame, cells were stimulated with 1 mM glutamate. After stimulation, cells were infused with Tyrode's solution.

AMPA receptor = test: Recording of spontaneous excitatory postsynaptic currents (sEPSCs) in stem cell-derived retinal ganglion cells; format: cell-based, human; settings: H9-derived RGCs, CNQX 50 μM
[2] = test system: human embryonic stem cell-derived retinal ganglion cells; test: Differentiation by other Wnt signaling pathway and Shh receptor activators, immunofluorescence of Islet-1 and NF200; format: cell-based; settings: day 39, Protocol A schedule; BIO 2 μM, Norrin 50 ng/mL, purmorphamine 1 μM, RA 500 nM
Procedure: On day 14 after induction of differentiation, retinal progenitor cells generated in Example 3 were cultured and differentiated into immature retinal ganglion cells for 3 days in a differentiation medium [DMEM/F12 (Invitrogen), 1 mM L-glutamine (Invitrogen), 0.1 mM nonessential amino acids (Invitrogen), 0.1 mM mercaptoethanol (Sigma-Aldrich), 1% B27 supplement (Invitrogen), 1% N2 supplement (Invitrogen), 10 ng/mL Noggin, 10 ng/mL IGF-1, 5 ng/mL FGF2, 50 ng/mL recombinant Wnt3a (R&D Systems)] containing 2 μM BIO (6-bromoindirubin-3′-oxime) or 50 ng/mL Norrin as the Wnt signaling pathway activator instead of 50 ng/mL recombinant Wnt3a. On day 17 after induction of differentiation, immature retinal ganglion cells thus generated were cultured and differentiated into mature retinal ganglion cells for 5 days in a differentiation medium [DMEM/F12 (Invitrogen), 1 mM L-glutamine (Invitrogen), 0.1 mM nonessential amino acids (Invitrogen), 0.1 mM mercaptoethanol (Sigma-Aldrich), 1% B27 supplement (Invitrogen), 1% N2 supplement (Invitrogen), 10 ng/mL IGF-1, 250 ng/mL recombinant Shh (R&D Systems)] containing 1 μM purmorphamine as the Shh receptor activator instead of 250 ng/mL Shh. On day 22 after induction of differentiation, the mature retinal ganglion cells were matured for 39 days using a medium prepared by adding 500 nM retinoic acid (RA) to the above differentiation medium.
The immunofluorescence assay of the cells generated by this method was performed using retinal ganglion cell markers, Islet-1 and NF200, and the results were consistent with the results of using Wnt3a and Shh (FIG. 21).

[3] = test system: outward potassium current; test: Whole-cell patch clamp recording of potassium current in stem cell-derived retinal ganglion cells; format: cell-based, human; settings: Protocol A, 4-AP 1 mM
[4] = test system: voltage-gated sodium channel; format: cell-based, human
retinal ganglion cells = test: Effects of Wnt3a, Shh and RA in Protocol A differentiation, immunofluorescence assay with retinal ganglion cell-specific markers; format: cell-based, human; parameters: production of retinal ganglion cells: dose or concentration left out as unconfirmed; settings: day 39
Procedure: After being blocked for 90 min, the slides in each differentiation step were incubated overnight at 4° C. with antibodies specific to cells of each differentiation step as given in Table 1. Before use, these antibodies were diluted in a PBS solution containing 1% BSA and 0.25% Triton X-100. The cells cultured on the slides in each step were washed three times for 5 min with PBS and incubated at room temperature for 2 hr with species-specific secondary antibody conjugated with Cy3 (1:800, Jackson Immunoresearch Laboratory) or Alexa488 (1:500, Invitrogen) (Table 1). A standard material suitable for the primary and the secondary antibodies was used to examine non-specific staining or interaction between the antibodies. Thereafter, the cells were washed three times for 5 min with PBS, counterstained with DAPI (4′,6-diamidino-2 phenylindole) and mounted in Vectashield (Vector Laboratories), followed by visualization under an epifluorescence microscope (Nikon Eclipse, E800, Tokyo, Japan) and a confocal microscope (Zeiss LSM510, Carl Zeiss, Inc, Thornwood, N.Y., USA). 500 cells were counted from 20 microscopic fields randomly selected at 400 magnification and evaluated for positive responses to each antibody. Positive responses to antibodies were determined after at least three evaluations.
To examine effects of each of Wnt3a, Shh and RA used in the Protocol A differentiation method during production of retinal ganglion cells, respective factors were treated according to a differentiation schedule of Protocol A, and on day 39 after induction of differentiation, an immunofluorescence assay was performed using retinal ganglion cell-specific markers (FIG. 22).

N[C@@H](CCC(=O)O)C(=O)O [glutamate]
cytoplasmic calcium level [1]: considerably increased; also recorded: considerable increase

N#Cc1cc2c(cc1[N+](=O)[O-])=NC(=O)C(=O)N=2 [CNQX, 6-cyano-7-nitroquinoxaline-2,3-dione]
appearance of sEPSCs (AMPA receptor; Protocol A, day 59): blocked | appearance of sEPSCs (AMPA receptor; Protocol B, day 96): blocked

c1ccc2c(Oc3nc(Nc4ccc(N5CCOCC5)cc4)c4ncn(C5CCCCC5)c4n3)cccc2c1 [purmorphamine]
immunofluorescence staining of Islet-1 and NF200 compared with Wnt3a and Shh [2]: consistent with the immunofluorescence staining results of Wnt3a and Shh

Nc1ccncc1 [4-Aminopyridine, 4-aminopyridine]
fast-activating fraction of outward potassium current ([3]; H9-derived RGCs, day 59): blocked | fast-activating fraction of outward potassium current ([3]; iPSC-derived RGCs, day 39): blocked

O=C1Nc2cc(Br)ccc2/C1=C1/Nc2ccccc2/C1=N\O [BIO, 6-bromoindirubin-3′-oxime]
immunofluorescence staining of Islet-1 and NF200 compared with Wnt3a and Shh [2]: consistent with the immunofluorescence staining results of Wnt3a and Shh

NC1=N[C@H](O)[C@H]2[C@H]3O[C@]4(O)O[C@@H]([C@@H](O)[C@@]2(N1)[C@@H]4O)[C@]3(O)CO [tetrodotoxin]
fast-activating and inactivating inward sodium currents [4]: completely blocked

B1: Dkkl: Wnt3a antagonist; recombinant Dickkopf-1, Wnt signaling pathway inhibitor (protein, UniProt O94907 32-266, looked up)
Dickkopf-related protein 1: TLNSVLNSNAIKNLPPPLGGAAGHPGSAVSAAPGILYPGGNKYQTIDNYQPYPCAEDEECGTDEYCASPTRGGDAGVQICLACRKRRKRCMRHAMCCPGNYCKNGICVSSDQNHFRGEIEETITESFGNDHSTLDGYSRRTTLSSKMYHTKGQEGSVCLRSSDCASGLCCARHFWSKICKPVLKEGQVCTKHRRKGSHGLEIFQRCYCGEGLSCRIQKDHHQASNSSRLHTCQRH
production of retinal ganglion cells (retinal ganglion cells; instead of Wnt3a days 14 to 17, Shh and RA per schedule): hardly produced

B2: Wnt3a: recombinant Wnt3a, Wnt signaling pathway activator (protein, UniProt P56704 19-352, looked up)
Protein Wnt-3a: SYPIWWSLAVGPQYSSLGSQPILCASIPGLVPKQLRFCRNYVEIMPSVAEGIKIGIQECQHQFRGRRWNCTTVHDSLAIFGPVLDKATRESAFVHAIASAGVAFAVTRSCAEGTAAICGCSSRHQGSPGKGWKWGGCSEDIEFGGMVSREFADARENRPDARSAMNRHNNEAGRQAIASHMHLKCKCHGLSGSCEVKTCWWSQPDFRAIGDFLKDKYDSASEMVVEKHRESRGWVETLRPRYTYFKVPTERDLVYYEASPNFCEPNPETGSFGTRDRTCNVSSHGIDGCDLLCCGRGHNARAERRREKCRCVFHWCCYVSCQECTRVYDVHTCK
caliber growth and fasciculation of axons (NF200 staining) (retinal ganglion cells; Protocol A schedule): delayed | synaptogenesis and dendritic spine development (TUJ1 staining) (retinal ganglion cells; Protocol A schedule): no synaptogenesis and dendritic spine development | retinal ganglion cells produced (retinal ganglion cells; factors treated per Protocol A schedule): ≥ 80%

B3: Norrin: Wnt signaling pathway activator; binds to Frizzled4 receptor (protein, UniProt Q00604 25-133, looked up)
Norrin: KTDSSFIMDSDPRRCMRHHYVDSISHPLYKCSSKMVLLARCEGHCSQASRSEPLVSFSTVLKQPFRSSCHCCRPQTSKLKALRLRCSGGMRLTATYRYILSCHCEECNS
immunofluorescence staining of Islet-1 and NF200 compared with Wnt3a and Shh [2]: consistent with the immunofluorescence staining results of Wnt3a and Shh

Reference: US11168302B2, “Method for differentiation into retinal ganglion cells from stem cells” (ClavisTherapeutics, INC., priority 2014, dated 2021)
